The source of these data is ChEMBL document CHEMBL6109090, “Design, synthesis, and biological evaluation of novel and highly potent peptides targeting syntenin” (Eur J Med Chem, 2025).

Activity calls are given as the source filed them. The rule behind the calls is not given here. Non-standard residues stand in square brackets, D forms with d. Residues, ends and D or L forms follow the SMILES beside them. Phg = N[C@H](C(=O)O)c1ccccc1

The subject of series [1] is SK-RC-20. Nature of the series: Antitumor activity in human SK-RC-20 cells xenografted in male BALB/c nude mouse model assessed as reduction in tumor volume at 5 to 15 mg/kg measured every three days for 15 days. In kind it is functional, organism-based. To be noted: dose 5-15 mg/kg, time 15.0 day. (Xenograft models place foreign cells or tissue in a host animal.)
Series [2] can be described thus: Stability in mouse serum at 5 uM measured after 4 hrs by HPLC analysis. Type of series: ADME, cell-free. As to conditions: for Stability: serum, 4 h, 5 µM.
Series [3] has as its system UO-31. Put plainly: Antiproliferative activity against human UO-31 cells assessed as inhibition of cell growth measured after 24 to 72 hrs by MTT assay. In kind it is functional, cell-based. To be noted: time 24-72 hrs. (In general: Formazan colour is commonly taken as a measure of viable cells.)
The subject of series [4] is SK-RC-20. Nature of the series: Downregulation of MMP2 mRNA expression in human SK-RC-20 cells at 50 to 100 nM by RT-PCR analysis. In kind it is functional, cell-based. To be noted: dose 50-100 nM.
Series [5] in a line: Antiproliferative activity against human SK-RC-20 cells assessed as inhibition of cell growth measured at 48 hrs by MTT assay. Type of series: functional, cell-based. As to conditions: SK-RC-20, 48 h.
Series [6] has as its system SK-RC-20. Put plainly: Downregulation of MT1-MMP mRNA expression in human SK-RC-20 cells at 50 to 100 nM by RT-PCR analysis. To be noted: dose 50-100 nM. Type of series: functional, cell-based.
Series [7] relates to KMRC-1. Put plainly: Antiproliferative activity against human KMRC-1 cells assessed as inhibition of cell growth measured after 24 to 72 hrs by MTT assay. In kind it is functional, cell-based. To be noted: time 24-72 hrs.
The subject of series [8] is CAKI-1. Nature of the series: Antiproliferative activity against human CAKI-1 cells assessed as inhibition of cell growth measured after 24 to 72 hrs by MTT assay. In kind it is functional, cell-based. As to conditions: time 24-72 hrs.
A short description of series [9]: Toxicity in male BALB/c nude mouse assessed as change in body weight at 5 to 15 mg/kg measured every three days for 15 days. Type of series: organism-based. As to conditions: in vivo, 360 h, dose 5-15 mg/kg, time 15 day.
Series [10] in a line: Binding affinity to Syntenin PDZ1 domain (unknown origin) assessed as dissociation constant by MST analysis. Further details: species or system Homo sapiens.
For series [11], the system named is SK-RC-20. Put plainly: Binding affinity to immobilized Syntenin in human SK-RC-20 cells at 5 uM incubated for 2 hrs by pull down assay. Type of series: cell-based.
The nature of series [12]: Antiproliferative activity against human SK-RC-20 cells assessed as inhibition of cell growth measured at 24 hrs by MTT assay. To be noted: SK-RC-20, 24 h. Type of series: functional, cell-based.
For series [13], the system named is SK-RC-20. Put plainly: Antitumor activity in human SK-RC-20 cells xenografted in male BALB/c nude mouse model assessed as inhibition of tumor growth at 15 mg/kg measured every three days for 15 days. In kind it is functional, organism-based. To be noted: time 15.0 day.
Series [14] can be described thus: Antiproliferative activity against human SK-RC-20 cells assessed as inhibition of cell growth measured at 72 hrs by MTT assay. In kind it is functional, cell-based. As to conditions: SK-RC-20, 72 h.
Series [15] concerns A498. Nature of the series: Antiproliferative activity against human A498 cells assessed as inhibition of cell growth measured after 24 to 72 hrs by MTT assay. In kind it is functional, cell-based. To be noted: time 24-72 hrs.

For orientation: IC50 means the midpoint of a concentration-inhibition curve. As a reminder, the Kd is a measure of binding affinity in units of concentration. `CC[C@H](C)[C@H](NC(=O)[C@H](CC(=O)O)NC(=O)[C@@H](NC(=O)[C@@H](NC(=O)[C@H](Cc1c[nH]c2ccccc12)NC(=O)[C@H](CCCCN)NC(=O)[C@@H](NC(C)=O)[C@@H](C)O)C(C)C)c1ccccc1)C(N)=O` (Ac-TKWV[Phg]DI-NH2): the outcome in series [1], in series [3], in series [4], in [6], in [7] and in series [8] was Active. Besides, the outcome in series [11], in [13] and in series [15] was Active. In series [2] (mouse serum, read-out: Stability), the remaining at 4 h, 5 µM was approximately 80%. Further, the IC50 turned out to be 910 nM in series [5], 1240 nM in [12] and 560 nM in series [14]. Further, the Activity result in [9] is given as “Toxic”. The Kd in [10] was found to be 6.15 nM.

For the molecule `CC[C@H](C)[C@H](NC(=O)[C@H](CC(=O)O)NC(=O)[C@@H](NC(=O)[C@@H](NC(=O)[C@H](Cc1c[nH]c2ccccc12)NC(=O)[C@H](Cc1cnc[nH]1)NC(=O)[C@H](CO)NC(=O)[C@@H](CCCNC(=N)N)NC(=O)[C@H](CCCNC(=N)N)NC(=O)[C@@H](CCCNC(=N)N)NC(=O)[C@H](CCCNC(=N)N)NC(=O)[C@@H](CCCNC(=N)N)NC(=O)CNC(=O)[C@@H](CCCNC(=N)N)NC(=O)[C@H](CCCNC(=N)N)NC(=O)[C@@H](CCCNC(=N)N)NC(C)=O)C(C)(C)C)C1CCCCC1)C(=O)O`, the Stability entry in series [2] is recorded as “Unstable”. The IC50 in [5] stood at 14400 nM; in series [12], 22100 nM; in series [14], 9710 nM. The Kd in series [10] is 0.3 nM.

`CC[C@H](C)[C@H](NC(=O)[C@H](CC(=O)O)NC(=O)[C@@H](NC(=O)[C@@H](NC(=O)[C@H](Cc1cnc[nH]1)NC(=O)[C@@H](CCCCN)NC(=O)[C@@H](NC(C)=O)[C@@H](C)O)C(C)C)c1ccccc1)C(N)=O`: the Kd in series [10] is 34.1 nM.

In the case of `CC[C@H](C)[C@H](NC(=O)[C@H](CC(=O)O)NC(=O)[C@@H](NC(=O)[C@@H](NC(=O)[C@H](Cc1c[nH]c2ccccc12)NC(=O)[C@H](NC(=O)[C@@H](NC(C)=O)[C@@H](C)O)C(C)C)C(C)C)c1ccccc1)C(N)=O`, in [10], the Kd worked out at 15.2 nM.

Take `CC[C@H](C)[C@H](NC(=O)[C@H](CC(=O)O)NC(=O)[C@H](NC(=O)[C@@H](NC(=O)[C@H](Cc1c[nH]c2ccccc12)NC(=O)[C@@H](CCCCN)NC(=O)[C@@H](NC(C)=O)[C@@H](C)O)C(C)C)C(C)C)C(N)=O`: the Kd in [10] stood at 19.7 nM.

On to `CC[C@H](C)[C@H](NC(=O)[C@H](CC(=O)O)NC(=O)[C@@H](NC(=O)[C@@H](NC(=O)[C@H](Cc1c[nH]c2ccccc12)NC(=O)[C@@H](CCCCN)NC(=O)[C@H](C)NC(C)=O)C(C)C)c1ccccc1)C(N)=O`, for which the Kd in [10] amounted to 9.07 nM.

As to `CC[C@H](C)[C@H](NC(=O)[C@H](CC(=O)O)NC(=O)[C@@H](NC(=O)[C@@H](NC(=O)[C@H](Cc1c[nH]c2ccccc12)NC(=O)[C@H](Cc1cnc[nH]1)NC(=O)[C@@H](N)CO)[C@@H](C)O)[C@@H](C)CC)C(=O)O` (H-SHWTIDI-OH), the Stability entry in series [2] is “Unstable”.

Turning to `CC[C@H](C)[C@H](NC(=O)[C@@H](NC(=O)[C@@H](NC(=O)[C@@H](NC(=O)[C@H](Cc1c[nH]c2ccccc12)NC(=O)[C@@H](CCCCN)NC(=O)[C@@H](NC(C)=O)[C@@H](C)O)C(C)C)c1ccccc1)C(C)C)C(N)=O`, the Kd in series [10] was 28.3 nM.
